Measurements: patent US10570179B2, “Substituted urea depsipeptide analogs as activators of the CLPP endopeptidase” (priority 2016, dated 2020)
Values after ≈ are worked out from the molar mass of the structure shown. Read-outs that look alike come from different tables or passages of the source. Numbered stars: 1 amine (or outer) side, 2 acyl side, 3 side chain; on linkers, the order of the positions; unused ones are H or OH. Bridge positions count the residues as written; N and C are the ends. Square brackets hold non-standard residues; d marks the D form. Peptide text beside a SMILES is read from it. * marks the point of attachment. Piperazine(2S-CO,4-Me) = CN1CCN[C@H](C(=O)O)C1; Phe(3,5-Me2) = Cc1cc(C)cc(C[C@H](N)C(=O)O)c1; Phe(3-OMe) = COc1cccc(C[C@H](N)C(=O)O)c1; Phe(3-Me) = Cc1cccc(C[C@H](N)C(=O)O)c1; NH(4-Cl-2-F-phenyl) = Fc1cc(Cl)ccc1N*; Pro(4R-Me) = C[C@H]1CN[C@H](C(=O)O)C1; Hyp = O=C(O)[C@@H]1C[C@@H](O)CN1; NH(4-Me-phenyl) = Cc1ccc(N*)cc1; aThr = C[C@H](O)[C@H](N)C(=O)O; Pip = O=C(O)[C@@H]1CCCCN1; 4Abz = Nc1ccc(C(=O)O)cc1; CO = O=C([*:1])[*:2]; X2 = Fc1cc(N*)ccc1Cl

Columns and labels:
Plasma stability assay [1] = assay type: in vitro ADME, mouse
How it was run: (§1)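 Compounds at 10 μM final in human or mouse plasma, incubated at 37 °C and sampled at 0, 3, 24 and 48 h in triplicate. Reactions quenched with cold acetonitrile containing warfarin internal standard; parent measured by LC-MS. Half-life from least-squares first-order fit.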

S. aureus ΔClpP = experiment: Minimal inhibitory concentration, microbroth dilution; assay type: cell-based, Staphylococcus aureus; details: MIC; ClpP inactivated
How it was run: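 MIC is recorded by eye as the lowest drug concentration that stops bacterial growth. Compound is serially diluted twofold in broth, starting at 200 μM final, and bacteria are added at roughly 10^5 cfu/mL. Incubation runs overnight at 37 °C under aerobic conditions, per CLSI guidance.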

Plasma stability assay [2] = assay type: in vitro ADME, human
How it was run: as §1

Solubility determination = assay type: physicochemical; details: for solubility kinetic at 10 min: 22 °C, aqueous buffer, kinetic from dmso stock
How it was run: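 DMSO stock spiked into DPBS at 100 µM final, in triplicate, shaken 10 min, then centrifuged 20 min at 22 °C. Supernatant quantified by UPLC-UV and single-ion-recording MS against DMSO calibration standards (0.098–100 µM), using 1/x²-weighted linear regression.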

[3] = plasma stability half-life, mouse plasma, 37° C.
[4] = plasma stability half-life, human plasma, 37° C.
[5] = solubility in DPBS, 100 μM test samples, LCMS, read-out: LCMS

SMILES	Minimal Inhibitory Concentrations (μM) S. aureus ΔClpP (S. aureus ΔClpP) [µM]	μsol (μM) (Solubility determination) [µM]	solubility kinetic at 10 min (Solubility determination) [µM]	Mouse (Plasma stability assay [1]; mouse, 10 μM) [h]	Human (Plasma stability assay [2]; human, 10 μM) [h]	Mouse (Plasma stability assay [1]; [3]) [h]	Human (Plasma stability assay [2]; [4]) [h]	solubility kinetic at 10 min (Solubility determination; [5]) [µM]	μsol (μM) (Solubility determination; solubility)	further results
Cc1cccc(C[C@H](NC(=O)Nc2ccc(Cl)cc2F)C(=O)N[C@@H]2C(=O)N3CCC[C@H]3C(=O)N3CCCC[C@H]3C(=O)N[C@@H](C)C(=O)N3C[C@H](C)C[C@H]3C(=O)O[C@H]2C)c1 [Compound 3, (S)-2-(3-(4-CHLORO-2-FLUOROPHENYL)UREIDO)-3-(M-TOLYL)-N-((2R,6S,8AS,14AS,20S,21S,23AS)-2,6,21-TRIMETHYL-5,8,14,19,23-PENTAOXOOCTADECAHYDRO-1H,5H,14H,19H-PYRIDO[2,1-I]DIPYRROLO[2,1-C:2′,1′-L][1]OXA[4,7,10,13]TETRAAZACYCLOHEXADECIN-20-YL)PROPANAMIDE] ({NH(4-Cl-2-F-phenyl)-CO}-[Phe(3-Me)][aThr]P[Pip]A[Pro(4R-Me)]; ester 2-C)	50	2.2 ± 0.1	0.5 (≈ 0.412 µg/mL)							Mouse (hr) (Plasma stability assay [1]; mouse, 10 μM): >>48 hr; Human (hr) (Plasma stability assay [2]; human, 10 μM): >>48 hr; μsol (μg/mL) (Solubility determination): 1.8 ± 0.1 µg/mL
Cc1cccc(C[C@H](NC(=O)Nc2ccc(Cl)cc2F)C(=O)N[C@@H]2C(=O)N3C[C@H](O)C[C@H]3C(=O)N3CCCC[C@H]3C(=O)N[C@@H](C)C(=O)N3C[C@H](C)C[C@H]3C(=O)O[C@H]2C)c1 [Compound 6, (S)-2-(3-(4-CHLORO-2-FLUOROPHENYL)UREIDO)-N-((2R,6S,8AS,14AS,16R,20S,21S,23AS)-16-HYDROXY-2,6,21-TRIMETHYL-5,8,14,19,23-PENTAOXOOCTADECAHYDRO-1H,5H,14H,19H-PYRIDO[2,1-I]DIPYRROLO[2,1-C:2′,1′-L][1]OXA[4,7,10,13]TETRAAZACYCLOHEXADECIN-20-YL)-3-(M-TOLYL)PROPANAMIDE] ({NH(4-Cl-2-F-phenyl)-CO}-[Phe(3-Me)][aThr][Hyp][Pip]A[Pro(4R-Me)]; ester 2-C)	>20	13.9 ± 1.4	12.6 ± 0.3 (≈ 10.6 µg/mL)	>50	>50					
Cc1cc(C)cc(C[C@H](NC(=O)Nc2ccc(Cl)cc2F)C(=O)N[C@@H]2C(=O)N3CCC[C@H]3C(=O)N3CCCC[C@H]3C(=O)N[C@@H](C)C(=O)N3C[C@H](C)C[C@H]3C(=O)O[C@H]2C)c1 [Compound 4, (S)-2-(3-(4-CHLORO-2-FLUOROPHENYL)UREIDO)-3-(3,5-DIMETHYLPHENYL)-N-((2R,6S,8AS,14AS,20S,21S,23AS)-2,6,21-TRIMETHYL-5,8,14,19,23-PENTAOXOOCTADECAHYDRO-1H,5H,14H,19H-PYRIDO[2,1-I]DIPYRROLO[2,1-C:2′,1′-L][1]OXA[4,7,10,13]TETRAAZACYCLOHEXADECIN-20-YL)PROPANAMIDE] ({NH(4-Cl-2-F-phenyl)-CO}-[Phe(3,5-Me2)][aThr]P[Pip]A[Pro(4R-Me)]; ester 2-C)	25									Mouse (hr) (Plasma stability assay [1]; mouse, 10 μM): >>48 hr; Human (hr) (Plasma stability assay [2]; human, 10 μM): >>48 hr; μsol (μg/mL) (Solubility determination): <0.1 µg/mL
Cc1cccc(C[C@H](NC(=O)Nc2ccc(Cl)c(F)c2)C(=O)N[C@H]2COC(=O)[C@@H]3C[C@@H](C)CN3C(=O)[C@H](C)NC(=O)[C@@H]3CN(C)CCN3C(=O)[C@@H]3CCCN3C2=O)c1 [Compound 14, (S)-2-(3-(4-CHLORO-3-FLUOROPHENYL)UREIDO)-3-(M-TOLYL)-N-((6AS,12S,15AS,17R,21S,23AS)-2,17,21-TRIMETHYL-6,11,15,20,23-PENTAOXOOCTADECAHYDRO-2H,6H,11H,15H-PYRAZINO[2,1-I]DIPYRROLO[2,1-C:2′,1′-L][1]OXA[4,7,10,13]TETRAAZACYCLOHEXADECIN-12-YL)PROPANAMIDE] ({X2-CO}-[Phe(3-Me)]SP[Piperazine(2S-CO,4-Me)]A[Pro(4R-Me)]; ester 2-C)	>20	43.6 ± 1.8	39.3 ± 1.9 (≈ 32.4 µg/mL)	9.55 ± 0.8	97.65 ± 17.0					
COc1cccc(C[C@H](NC(=O)Nc2ccc(Cl)cc2F)C(=O)N[C@H]2COC(=O)[C@@H]3C[C@@H](C)CN3C(=O)[C@H](C)NC(=O)[C@@H]3CN(C)CCN3C(=O)[C@@H]3CCCN3C2=O)c1 [Compound 19, (S)-2-(3-(4-CHLORO-2-FLUOROPHENYL)UREIDO)-3-(3-METHOXYPHENYL)-N-((6AS,12S,15AS,17R,21S,23AS)-2,17,21-TRIMETHYL-6,11,15,20,23-PENTAOXOOCTADECAHYDRO-2H,6H,11H,15H-PYRAZINO[2,1-I]DIPYRROLO[2,1-C:2′,1′-L][1]OXA[4,7,10,13]TETRAAZACYCLOHEXADECIN-12-YL)PROPANAMIDE] ({NH(4-Cl-2-F-phenyl)-CO}-[Phe(3-OMe)]SP[Piperazine(2S-CO,4-Me)]A[Pro(4R-Me)]; ester 2-C)	>20	51.5 ± 1.1	55.9 ± 2.9 (≈ 47 µg/mL)	12.82	62.38					
Cc1ccc(NC(=O)N[C@@H](Cc2cccc(C)c2)C(=O)N[C@H]2COC(=O)[C@@H]3CCCN3C(=O)[C@H](C)NC(=O)[C@@H]3CCCCN3C(=O)[C@@H]3C[C@@H](O)CN3C2=O)cc1 [Compound 49, (S)—N-((6S,8AS,14AS,16R,20S,23AS)-16-HYDROXY-6-METHYL-5,8,14,19,23-PENTAOXOOCTADECAHYDRO-1H,5H,14H,19H-PYRIDO[2,1-I]DIPYRROLO[2,1-C:2′,1′-L][1]OXA[4,7,10,13]TETRAAZACYCLOHEXADECIN-20-YL)-3-(M-TOLYL)-2-(3-(P-TOLYL)UREIDO)PROPANAMIDE]	>20					22.75	29.79	17 ± 6.97 (≈ 13.1 µg/mL)	8.5 ± .51 µM	
CCOC(=O)c1ccc(NC(=O)N[C@@H](Cc2cccc(C)c2)C(=O)N[C@@H]2C(=O)N3C[C@H](O)C[C@H]3C(=O)N3CCCC[C@H]3C(=O)N[C@@H](C)C(=O)N3C[C@H](C)C[C@H]3C(=O)O[C@H]2C)cc1 [Compound 36, ETHYL 4-(3-((S)-1-(((2R,6S,8AS,14AS,16R,20S,21S,23AS)-16-HYDROXY-2,6,21-TRIMETHYL-5,8,14,19,23-PENTAOXOOCTADECAHYDRO-1H,5H,14H,19H-PYRIDO[2,1-I]DIPYRROLO[2,1-C:2′,1′-L][1]OXA[4,7,10,13]TETRAAZACYCLOHEXADECIN-20-YL)AMINO)-1-OXO-3-(M-TOLYL)PROPAN-2-YL)UREIDO)BENZOATE] ({OEt-4Abz-CO}-[Phe(3-Me)][aThr][Hyp][Pip]A[Pro(4R-Me)]; ester 2-C)	>20					0.30	57.50	8.17 ± 0.167 (≈ 7.02 µg/mL)	6.4 ± .40 µM	
Cc1cccc(C[C@H](NC(=O)Nc2ccc(Cl)cc2F)C(=O)N[C@H]2COC(=O)[C@@H]3C[C@@H](C)CN3C(=O)[C@H](C)NC(=O)[C@@H]3CCCCN3C(=O)[C@@H]3C[C@@H](O)CN3C2=O)c1 [Compound 10]	>20	26.0 ± 0.9	27.04 ± 0.25 (≈ 22.3 µg/mL)	>50	58.50					
Cc1ccc(NC(=O)N[C@@H](Cc2cccc(C)c2)C(=O)N[C@@H]2C(=O)N3CCC[C@H]3C(=O)N3CCCC[C@H]3C(=O)N[C@@H](C)C(=O)N3C[C@H](C)C[C@H]3C(=O)O[C@H]2C)cc1 [Compound 1, (S)-3-(M-TOLYL)-2-(3-(P-TOLYL)UREIDO)-N-((2R,6S,8AS,14AS,20S,21S,23AS)-2,6,21-TRIMETHYL-5,8,14,19,23-PENTAOXOOCTADECAHYDRO-1H,5H,14H,19H-PYRIDO[2,1-I]DIPYRROLO[2,1-C:2′,1′-L][1]OXA[4,7,10,13]TETRAAZACYCLOHEXADECIN-20-YL)PROPANAMIDE] ({NH(4-Me-phenyl)-CO}-[Phe(3-Me)][aThr]P[Pip]A[Pro(4R-Me)]; ester 2-C)	200							22.9 (≈ 18 µg/mL)	40.7 µM	Mouse (hr) (Plasma stability assay [1]; [3]): >>48 hr; Human (hr) (Plasma stability assay [2]; [4]): >>48 hr; μsol (μg/mL) (Solubility determination; solubility): 32.0 µg/mL
Cc1ccc(NC(=O)N[C@@H](Cc2cccc(C)c2)C(=O)N[C@H]2COC(=O)[C@@H]3C[C@@H](C)CN3C(=O)[C@H](C)NC(=O)[C@@H]3CN(C)CCN3C(=O)[C@@H]3CCCN3C2=O)cc1 [Compound 15, (S)-3-(M-TOLYL)-2-(3-(P-TOLYL)UREIDO)-N-((6AS,12S,15AS,17R,21S,23AS)-2,17,21-TRIMETHYL-6,11,15,20,23-PENTAOXOOCTADECAHYDRO-2H,6H,11H,15H-PYRAZINO[2,1-I]DIPYRROLO[2,1-C:2′,1′-L][1]OXA[4,7,10,13]TETRAAZACYCLOHEXADECIN-12-YL)PROPANAMIDE] ({NH(4-Me-phenyl)-CO}-[Phe(3-Me)]SP[Piperazine(2S-CO,4-Me)]A[Pro(4R-Me)]; ester 2-C)	>20					5.95 ± 0.6	>50	57.2 ± 1.1 (≈ 45 µg/mL)	25.1 ± 1.7 µM	
